Assay results reported in article PMC12596218 (Journal of Lipid Research, 2025).
“And” between values parts separate entries of the source, which are not always exact repeats. Identical values can stand only once.

Legend:
NTCP = molecular target: T1, NTCP (Homo sapiens, UniProt Q14973); assay: [3H]TC transport and inhibition assay in NTCP-HEK293 cells; assay type: cell-based; conditions: 1 μM [3H]TC; for IC50: 10 min, NTCP-HEK293, two independent experiments; for NTCP inhibition (in words): inhibitor up to 100 μM
T1 construct: stably transfected with the full open reading frames of human NTCP, ASBT, SOAT, OATP1B1, OATP1B3, OATP2B1, and murine Asbt (mAsbt); expressed in transfected cells; host or cells: HEK293 (Flp-In), stably transfected, tetracycline-induced
T1 sequence (Q14973 1-349): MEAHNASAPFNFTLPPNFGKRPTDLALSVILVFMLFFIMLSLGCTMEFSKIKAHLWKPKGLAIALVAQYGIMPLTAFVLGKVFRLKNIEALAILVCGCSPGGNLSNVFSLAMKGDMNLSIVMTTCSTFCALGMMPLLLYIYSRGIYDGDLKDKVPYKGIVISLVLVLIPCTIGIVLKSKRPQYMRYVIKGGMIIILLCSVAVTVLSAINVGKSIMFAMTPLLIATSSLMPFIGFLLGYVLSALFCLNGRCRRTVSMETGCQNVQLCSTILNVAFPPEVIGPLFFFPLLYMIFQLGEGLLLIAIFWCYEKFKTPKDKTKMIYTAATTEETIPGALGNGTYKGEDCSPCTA
From the text: Human embryonic kidney HEK293 cells, stably transfected with the full open reading frames of human NTCP, ASBT, SOAT, OATP1B1, OATP1B3, OATP2B1, and murine Asbt (mAsbt) were used as reported ([18], [20], [21], [22], [23]). The NTCP, ASBT, and mAsbt constructs were C-terminally tagged with the FLAG epitope, and the SOAT construct was C-terminally tagged with green fluorescent protein. Non-transfected Flp-In HEK293 cells (Thermo Fisher Scientific) served as the control. All cell lines were maintained at 37°C, 5% CO2 and 95% humidity in DMEM/F-12 medium (Thermo Fisher Scientific) supplemented with 10% fetal calf serum (Sigma-Aldrich), 4 mM L-glutamine (PAA) and penicillin/streptomycin (PAA). Expression of the respective carrier protein was induced by tetracycline treatment at 1 μg/ml (Carl Roth GmbH + Co. KG).
Cells were seeded onto poly-L-lysine-coated 96-well plates, induced with 1 μg/ml tetracycline, and grown to confluence over 72 h at 37°C. Then, cells were washed with tempered (37°C) phosphate-buffered saline (PBS, containing 137.0 mM NaCl, 2.7 mM KCl, 1.5 mM KH2PO4, and 7.3 mM Na2HPO4, at pH 7.4) and preincubated with 80 μl sodium transport buffer (STB, containing 142.9 mM NaCl, 4.7 mM KCl, 1.2 mM MgSO4, 1.2 mM KH2PO4, 1.8 mM CaCl2, and 20.0 mM HEPES, at pH 7.4) for 5 min at 37°C. For inhibition studies, the medium was replaced by 80 μl STB containing the respective inhibitor or solvent alone and cells were further incubated for 5 min at 37°C. Transport experiments were started by adding 20 μl of a 5-fold concentrated substrate solution (solved in STB). For transport experiments under sodium-free conditions the same buffer composition was used as for STB, but sodium chloride was substituted with equimolar concentrations of choline chloride as previously reported ([20], [24]). Transport experiments were stopped by washing twice with ice-cold PBS and the plates were kept cool on ice until adding the lysis buffer [1% sodium dodecyl sulfate (SDS) and 1 N NaOH]. Then, the cell-associated radioactivity of the respective tritium-labeled substrate or ligand was quantified by liquid scintillation counting using MicroScint-20 scintillation cocktail (Revvity) in a Packard Microplate Scintillation Counter TopCount NXT (Packard Instrument Company). For IC50 transport inhibition measurements, the mean uptake values measured in non-carrier-expressing HEK293 control cells were defined as 0% uptake control and were subtracted from all other values. Values from cells without inhibitor and solvent alone were set to 100%. Finally, all net transport data were expressed as uptake or binding as % of control. All transport or inhibition graphs were generated with GraphPad Prism 6 (GraphPad). Determination of half maximal inhibitory concentrations (IC50) was done by nonlinear regression analysis using the equation log (inhibitor) versus response—variable slope settings. All data points of the IC50 curves represent means ± SD of quadruplicate determinations. For Km measurements, BS uptake in the absence of sodium was regarded as carrier-independent unspecific uptake and was subtracted from the transport rates in the presence of sodium to obtain carrier-specific uptake rates (indicated as dashed lines). From the specific uptake rates, Michaelis Menten Km values were calculated by non-linear regression analysis.

ASBT = molecular target: T2, ASBT (Homo sapiens, UniProt Q12908); assay: Transport inhibition and recovery assay (inhibitor washout) in ASBT-HEK293 cells; assay type: cell-based; conditions: 3 μM inhibitor 5 min; for ASBT inhibition pattern after inhibitor washout and inhibitor-free incubation: recovery time up to 240 min
T2 construct: stably transfected with the full open reading frames of human NTCP, ASBT, SOAT, OATP1B1, OATP1B3, OATP2B1, and murine Asbt (mAsbt); expressed in transfected cells; host or cells: HEK293 (Flp-In), stably transfected, tetracycline-induced
T2 sequence (Q12908 1-348): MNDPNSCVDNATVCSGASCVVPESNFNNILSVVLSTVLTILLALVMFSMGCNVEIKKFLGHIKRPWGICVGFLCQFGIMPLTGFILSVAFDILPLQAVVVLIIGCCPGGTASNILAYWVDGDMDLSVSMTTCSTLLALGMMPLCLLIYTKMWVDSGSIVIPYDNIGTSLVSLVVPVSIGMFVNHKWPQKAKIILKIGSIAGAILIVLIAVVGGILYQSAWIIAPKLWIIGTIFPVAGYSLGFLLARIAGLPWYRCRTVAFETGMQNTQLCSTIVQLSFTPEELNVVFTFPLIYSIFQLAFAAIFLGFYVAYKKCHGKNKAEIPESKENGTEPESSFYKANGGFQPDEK
Method: HEK293 cells stably expressing ASBT were seeded onto poly-L-lysine-coated 96-well plates, induced with 1 μg/ml tetracycline, and grown to confluence over 72 h at 37°C. Non-carrier-expressing HEK293 cells were used as control. Then, cells were washed with tempered (37°C) PBS and equilibrated for 5 min with STB. […] After inhibitor preincubation, cells were washed with tempered (37°C) PBS and further incubated in inhibitor-free DMEM (Thermo Fisher Scientific) for 30, 60, 120, or 240 min at 37°C. […] Finally, cell associated radioactivity was determined using the MicroBeta2 liquid scintillation counter (Revvity). For each inhibitor, the mean values from noncarrier-expressing HEK293 cells were set to 0% and transport measurements in the absence of inhibitor (solvent control) were set to 100%.
In the second setup, the inhibitor was thoroughly washed out after the preincubation phase and cells were placed on inhibitor-free medium for different time intervals of 0–240 min (indicated by “recovery time” in Fig. 7A).

Structure (SMILES): CCCCC1(CCCC)CS(=O)(=O)c2ccc(N(C)C)cc2[C@@H](c2ccc(OCc3ccc(C[N+]45CCN(CC4)CC5)cc3)cc2)[C@H]1O [maralixibat]
- IC50 (NTCP): 91.5 µM and 98.5 µM
- ASBT inhibition pattern after inhibitor washout and inhibitor-free incubation (ASBT): retained full ASBT uptake inhibition

Structure (SMILES): CCCCC1(CCCC)CN(c2ccccc2)c2cc(SC)c(OCC(=O)N[C@@H](C(=O)N[C@@H](CC)C(=O)O)c3ccc(O)cc3)cc2S(=O)(=O)N1 [odevixibat]
- IC50 (NTCP): 9.9 µM and 17 µM
- ASBT inhibition pattern after inhibitor washout and inhibitor-free incubation (ASBT): retained full ASBT uptake inhibition

Structure (SMILES): CCCC[C@]1(CC)CS(=O)(=O)c2cc(CNC(CC(=O)O)CC(=O)O)c(OC)cc2[C@@H](c2ccccc2)N1 [linerixibat]
- NTCP inhibition (in words) (NTCP): no significant NTCP inhibition
- ASBT transport activity recovered directly after inhibitor washout (ASBT; 0 min recovery): about 37%
- ASBT recovery after washout and 30 min in inhibitor-free medium (ASBT; 30 min recovery): mostly recovered ASBT
- ASBT inhibition pattern after inhibitor washout and inhibitor-free incubation (ASBT): quick and full recovery

Structure (SMILES): CCCCC1(CCCC)CS(=O)(=O)c2ccc(N(C)C)cc2[C@@H](c2ccc(OCCCC[N+]34CCN(CC3)CC4)cc2)[C@H]1O [SC-435]
- NTCP inhibition (in words) (NTCP): no significant NTCP inhibition
- ASBT inhibition pattern after inhibitor washout and inhibitor-free incubation (ASBT): intermediate inhibition pattern

Structure (SMILES): CCCCC1(CCCC)CN(c2ccccc2)c2cc(SC)c(OCC(=O)N[C@@H](C(=O)NCC(=O)O)c3ccccc3)cc2S(=O)(=O)C1 [elobixibat]
- IC50 (NTCP): 36.3 µM and 66.1 µM
- ASBT inhibition pattern after inhibitor washout and inhibitor-free incubation (ASBT): intermediate inhibition pattern
